# Data as given in PMC7401407, “Development of WEE2 kinase inhibitors as novel non-hormonal female contraceptives that target meiosis” (Biology of Reproduction, 2020).
# “Also recorded” adds a separate entry of the source.
# Experiments:
# [1] = system: T1, human WEE1 protein; experiment: ELISA of CDK1 phosphorylation (CycLex WEE1 Kinase Assay/Inhibitor Screening Kit), WEE1; assay type: biochemical; conditions: 1 μM inhibitor, 60 min at 30 °C
# T1 construct: purchased MBL International CYE1172
# [2] = system: HEK 293 cells; experiment: Somatic cell proliferation assay (dye dilution, flow cytometry); assay type: cell-based
# Text: To determine off-target effects of inhibitors on somatic cell WEE1, a proliferation assay was used as previously reported [22]. […] Independent cell cultures were collected at 0-, 48-, 72-, and 96-h post loading with a membrane permeable fluorophore, cell trace violet dye (Cat# C34557; ThermoFisher, Waltham, MA), which diminishes in concentration within the cell after each progressive division. Duplicate samples were collected and fixed for analysis by flow cytometry.
# To evaluate the biological off-target effect of candidate inhibitors on mitosis, we use somatic cell culture and flow cytometry to assess proliferation disruption. […] Prior to each culture experiment, we treat the cells with a membrane permeable fluorescent dye to track cellular division activity. As cells divide the dye becomes diluted and the fluorescent signal decreases. We use flow cytometry, with at least 20 000 events counted to measure fluorescence intensity to indicate changes in cell proliferation in the presence of inhibitors [38]. The more inhibitory a drug, the more dye will be retained in the cells and so comparison can be made to controls to determine the level of mitotic activity.
# [3] = system: bovine oocytes; experiment: Bovine in vitro fertilization (exit from metaphase II arrest); assay type: cell-based
# [4] = system: T2, recombinant WEE2 protein; experiment: ELISA of CDK1 phosphorylation (CycLex kit), WEE2; assay type: biochemical, human; conditions: 1 μM inhibitor, 60 min at 30 °C
# T2 construct: made in house
# [5] = system: MYT1 (PKMYT1); set-up: method as in PMID 28792760; conditions: direct binding studies; cited from earlier work
structure (smiles),measurement,setting,value
"C=CCn1c(=O)c2cnc(Nc3ccc(N4CCN(C)CC4)cc3)nc2n1-c1cccc(C(C)(C)O)n1 [MK-1775, Adavosertib]",WEE1 phosphorylation activity of CDK1,[1],significantly reduces; also recorded: significantly inhibits
same,somatic cell division activity (mitosis),"[2]; HEK 293, 0.01 μM",decrease in mitosis
same,somatic cell division activity (mitosis),"[2]; HEK 293, 0.1 μM",decrease in mitosis
same,somatic cell division activity (mitosis),"[2]; HEK 293, 1 μM",inhibited mitosis in somatic cell culture after 48 h; also recorded: arrested the cell culture
same,proportion of oocytes undergoing normal fertilization,[3]; 1 μM prior to and during IVF,reduction in the proportion of oocytes undergoing normal fertilization
same,reduction of MII exit compared to DMSO,"[3]; bovine oocytes co-cultured with inhibitor during IVF, N = 126",16%
same,WEE2 phosphorylation activity of CDK1,[4],significantly reduces; also recorded: significantly inhibits
same,activity against MYT1 relative to WEE1 and WEE2,[5],significantly weaker activity
